The values below come from US7829563B2, “Aminoamides as orexin antagonists” (Hoffmann-La Roche Inc., priority 2007, dated 2010).

A word on the Kb: it is the equilibrium dissociation constant of an antagonist, usually derived from a functional assay.

This assay concerns the target T1, human orexin-2 (hOX2) receptors (Homo sapiens, UniProt O43614).
T1 construct: expressed in transfected cells
T1 sequence (O43614 1-444): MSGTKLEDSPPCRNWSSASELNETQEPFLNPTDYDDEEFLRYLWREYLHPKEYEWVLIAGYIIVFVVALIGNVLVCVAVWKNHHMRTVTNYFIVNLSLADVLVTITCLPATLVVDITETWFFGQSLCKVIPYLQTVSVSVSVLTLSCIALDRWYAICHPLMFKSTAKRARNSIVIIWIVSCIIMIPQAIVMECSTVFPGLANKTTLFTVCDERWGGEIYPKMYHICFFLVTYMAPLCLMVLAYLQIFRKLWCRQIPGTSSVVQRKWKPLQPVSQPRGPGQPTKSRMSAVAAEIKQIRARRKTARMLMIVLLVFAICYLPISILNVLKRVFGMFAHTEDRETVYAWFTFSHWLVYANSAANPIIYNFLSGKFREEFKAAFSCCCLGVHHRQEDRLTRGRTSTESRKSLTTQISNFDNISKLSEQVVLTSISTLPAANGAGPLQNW
In words: Intracellular Ca2+ mobilization assay (FLIPR), antagonism of orexin-A. The class given is cell-based. Conditions: CHO(dHFr−) cells stably expressing hOX2; orexin-A at EC80 as agonist; Kb=IC50/(1+[A]/EC50); read-out: Kb (μM) OX2R (human). The protocol: R^7 and R^8 in scheme 5 are hydrogen, and the other substituents are as described above The compounds were investigated in accordance with the test given hereinafter. Intracellular Ca^2+ Mobilization Assay
The Chinese Hamster Ovary (dHFr−) mutant cell line stably expressing human orexin-1 (hOX1) or human orexin-2 (hOX2) receptors were maintained in Dulbecco's Modified Eagle Medium (1×) with GlutaMax™ 1, 4500 mg/L D-Glucose and Sodium Pyruvate (Catalog No. 31966-021, Invitrogen, Carlsbad, Calif.), 5% dialyzed fetal calf serum (Catalog No. 26400-044), 100 μg/ml penicillin and 100 μg/ml streptomycin. The cells were seeded at 5×10^4 cells/well in the poly-D-lysine treated, 96-well, black/clear-bottomed plates (Catalog No. BD356640, BD Biosciences, Palo Alto, Calif.). 24 h later, the cells were loaded for 1 h at 37° C. with 4 μM Flou-4 acetoxymethyl ester (Catalog No. F-14202, Molecular Probes, Eugene, Oreg.) in FLIPR buffer (1×HBSS, 20 mM HEPES, 2.5 mM Probenecid). Hanks' Balanced Salt Solution (HBSS) (10×) (catalog No. 14065-049) and HEPES (1M) (catalog No. 15630-056) were purchased from Invitrogen, Carlsbad, Calif. Probenecid (250 mM) (catalog No. P8761) was from Sigma, Buchs, Switzerland. The cells were washed five times with FLIPR buffer to remove excess dye and intracellular calcium mobilization, [Ca^2+]i were measured using a Fluorometric Imaging Plate Reader (FLIPR-96, Molecular Devices, Menlo Park, Calif.) as described previously (Malherbe et al., Mol. Pharmacol., 64, 823-832, 2003). Orexin A (catalog No. 1455, Toris Cookson Ltd, Bristol, UK) was used as agonist. Orexin A ([…] stock solution in DMSO) was diluted in FLIPR buffer+0.1% BSA. The EC50 and EC80 values of orexin-A were measured daily from standard agonist concentration-response curves in CHO(dHFr−)-OX1R and —OX2R cell lines. All compounds were dissolved in 100% DMSO. Inhibition curves were determined by addition of 11 concentrations (0.0001-10 μM) of inhibitory compounds and using EC80 value of orexin-A as agonist (a concentration which gave 80% of max agonist response, determined daily). The antagonists were applied 25 min (incubation at 37° C.) before the application of the agonist. Responses were measured as peak increase in fluorescence minus basal, normalized to the maximal stimulatory effect induced by EC80 value of orexin-A or orexin-B. Inhibition curves were fitted according to the Hill equation: y=100/(1+(x/IC50)^nH), where nH=slope factor using Excel-fit 4 software (Microsoft). Kb values were calculated according to the following equation Kb=IC50/(1+[A]/EC50) where A is the concentration of agonist added which is very close to agonist EC80 value, and IC50 and EC50 values were derived from the antagonist inhibition and orexin-A or B agonist curves, respectively.
Take `CNC(=O)C(NC(CCc1ccc(C)nc1)c1ccc(F)c(C)c1)c1ccccc1` (mixture of isomers) [Example 258, 2-[1-(4-Fluoro-3-methyl-phenyl)-3-(6-methyl-pyridin-3-yl)-propylamino]-N-methyl-2-phenyl-acetamide]: the Kb was found to be 0.0172 µM. With `CNC(=O)C(NC(CCc1ccc(C(F)(F)F)nc1)c1ccc(OC(F)F)c(OC(F)F)c1)c1ccccc1` (mixture of isomers) [Example 263, 2-[1-(3,4-Bis-difluoromethoxy-phenyl)-3-(6-trifluoromethyl-pyridin-3-yl)-propylamino]-N-methyl-2-phenyl-acetamide], the Kb came to 0.0102 µM. As to `CNC(=O)[C@@H](N[C@@H](CCc1ccc(C(F)(F)F)cc1)c1ccc(OC)c(OC)c1)c1ccc(Cl)cc1` (racemic) [Example 33, (S,R)-2-(4-Chloro-phenyl)-2-[(S,R)-1-(3,4-dimethoxy-phenyl)-3-(4-trifluoromethyl-phenyl)-propylamino]-N-methyl-acetamide], the Kb turned out to be 0.009 µM. Then `CNC(=O)[C@H](N[C@@H](CCc1ccc(C(F)(F)F)cc1)c1ccc(OC)c(OC)c1)c1ccc(F)cc1` (racemic) [Example 34, (S,R)-2-[(R,S)-1-(3,4-Dimethoxy-phenyl)-3-(4-trifluoromethyl-phenyl)-propylamino]-2-(4-fluoro-phenyl)-N-methyl-acetamide], with 0.0049 µM; and `CNC(=O)[C@H](N[C@@H](CCc1ccc(Cl)cc1)c1ccc2c(c1)CCO2)c1ccccc1` (racemic) [Example 38, (S,R)-2-[(R,S)-3-(4-Chloro-phenyl)-1-(2,3-dihydro-benzofuran-5-yl)-propylamino]-N-methyl-2-phenyl-acetamide], with 0.0096 µM. With `CNC(=O)[C@H](N[C@@H](CCc1ccc(Cl)cc1)c1ccc(OC)c(OC)c1Cl)c1ccccc1` (racemic) [Example 40, (S,R)-2-[(R,S)-1-(2-Chloro-3,4-dimethoxy-phenyl)-3-(4-chloro-phenyl)-propylamino]-N-methyl-2-phenyl-acetamide], the antagonist equilibrium constant (Kb) was 0.0068 µM. As to `CNC(=O)[C@H](N[C@H](CCc1ccc(Cl)cc1)c1ccc(OC)c(OC)c1Cl)c1ccccc1` (racemic) [Example 41, (S,R)-2-[(S,R)-1-(2-Chloro-3,4-dimethoxy-phenyl)-3-(4-chloro-phenyl)-propylamino]-N-methyl-2-phenyl-acetamide], the Kb was determined as 0.0167 µM. Regarding `CNC(=O)[C@H](N[C@@H](CCc1ccc(C(F)(F)F)nc1)c1ccc2c(c1)CCCC2)c1ccc(F)cc1` (racemic) [Example 57, (S,R)-2-(4-Fluoro-phenyl)-N-methyl-2-[(R,S)-1-(5,6,7,8-tetrahydro-naphthalen-2-yl)-3-(6-trifluoromethyl-pyridin-3-yl)-propylamino]-acetamide], the Kb came to 0.0093 µM.

In the case of `CNC(=O)[C@H](N[C@@H](CCc1ccc(C(F)(F)F)cc1)c1ccc2c(c1)OCCN2C)c1ccccc1` (racemic) [Example 78, (S,R)—N-Methyl-2-[(R,S)-1-(4-methyl-3,4-dihydro-2H-benzo[1,4]oxazin-7-yl)-3-(4-trifluoromethyl-phenyl)-propylamino]-2-phenyl-acetamide], the antagonist equilibrium constant (Kb) was found to be 0.0127 µM.

Regarding `CNC(=O)[C@H](N[C@@H](CCc1ccc(OC)cc1)c1cccnc1OC)c1ccccc1` (racemic) [Example 135, (S,R)-2-[(R,S)-3-(4-Methoxy-phenyl)-1-(2-methoxy-pyridin-3-yl)-propylamino]-N-methyl-2-phenyl-acetamide], the Kb worked out at 0.0155 µM. Then `CNC(=O)[C@@H](N[C@@H](CCc1ccc(C(F)(F)F)cc1)c1ccc(OC)c(OC)c1)c1ccccc1` (racemic) [Example 141, (S,R)-2-[(S,R)-1-(3,4-Dimethoxy-phenyl)-3-(4-trifluoromethyl-phenyl)-propylamino]-N-methyl-2-phenyl-acetamide], with 0.0168 µM.

Regarding `CNC(=O)[C@H](N[C@@H](CCc1ccc(C(F)(F)F)cc1)c1ccc(OC)c(OC)c1)c1ccccc1` (racemic) [Example 142, (S,R)-2-[(R,S)-1-(3,4-Dimethoxy-phenyl)-3-(4-trifluoromethyl-phenyl)-propylamino]-N-methyl-2-phenyl-acetamide], the antagonist dissociation constant (Kb) is 0.003 µM.

Take `CNC(=O)[C@H](N[C@@H](CCc1ccc(OC)cc1)c1ccc(OC)c(OC)c1)c1ccccc1` (racemic) [Example 146, (S,R)-2-[(R,S)-1-(3,4-Dimethoxy-phenyl)-3-(4-methoxy-phenyl)-propylamino]-N-methyl-2-phenyl-acetamide]: the Kb was 0.0132 µM. Regarding `CNC(=O)[C@H](N[C@@H](CCc1ccc(C(F)(F)F)nc1)c1ccc(OC)c(OC)c1)c1ccccc1` (racemic) [Example 171, (S,R)-2-[(R,S)-1-(3,4-Dimethoxy-phenyl)-3-(6-trifluoromethyl-pyridin-3-yl)-propylamino]-N-methyl-2-phenyl-acetamide], the antagonist equilibrium constant (Kb) came out at 0.005 µM.

For `CNC(=O)[C@H](N[C@H](CCc1ccc(C(F)(F)F)cc1)c1ccc(Cl)c(OC)c1)c1ccccc1` (racemic) [Example 176, (S,R)-2-[(S,R)-1-(4-Chloro-3-methoxy-phenyl)-3-(4-trifluoromethyl-phenyl)-propylamino]-N-methyl-2-phenyl-acetamide], the Kb was found to be 0.0086 µM. Then `CNC(=O)[C@H](N[C@@H](CCc1ccc(C(F)(F)F)cc1)c1ccc(Cl)c(OC)c1)c1ccccc1` (racemic) [Example 177, (S,R)-2-[(R,S)-1-(4-Chloro-3-methoxy-phenyl)-3-(4-trifluoromethyl-phenyl)-propylamino]-N-methyl-2-phenyl-acetamide], with 0.0099 µM; and `CNC(=O)[C@H](N[C@@H](CCc1ccc(C(F)(F)F)cc1)c1cccnc1OC)c1ccccc1` (racemic) [Example 179, (S,R)-2-[(R,S)-1-(2-Methoxy-pyridin-3-yl)-3-(4-trifluoromethyl-phenyl)-propylamino]-N-methyl-2-phenyl-acetamide], with 0.0081 µM; and `CNC(=O)[C@H](N[C@@H](CCc1ccc(C(F)(F)F)cc1)c1cccc(C)n1)c1ccccc1` (racemic) [Example 207, (S,R)—N-Methyl-2-[(R,S)-1-(6-methyl-pyridin-2-yl)-3-(4-trifluoromethyl-phenyl)-propylamino]-2-phenyl-acetamide], with 0.0079 µM. Take `CNC(=O)[C@H](N[C@@H](CCc1ccc(C)cc1)c1ccc(OC)c(OC)c1)c1ccccc1` (racemic) [Example 209, (S,R)-2-[(R,S)-1-(3,4-Dimethoxy-phenyl)-3-p-tolyl-propylamino]-N-methyl-2-phenyl-acetamide]: the Kb worked out at 0.0024 µM.

`CNC(=O)[C@H](N[C@@H](CCc1ccc(C(F)(F)F)cc1)c1cc(OC)ccn1)c1ccccc1` (racemic) [Example 210, (S,R)-2-[(R,S)-1-(4-Methoxy-pyridin-2-yl)-3-(4-trifluoromethyl-phenyl)-propylamino]-N-methyl-2-phenyl-acetamide]: the antagonist equilibrium constant (Kb) stood at 0.0096 µM. The figure for `CNC(=O)[C@H](N[C@H](CCc1ccc(C(F)(F)F)nc1)c1ccc(Cl)c(OC)c1)c1ccccc1` (racemic) [Example 215, (S,R)-2-[(S,R)-1-(4-Chloro-3-methoxy-phenyl)-3-(6-trifluoromethyl-pyridin-3-yl)-propylamino]-N-methyl-2-phenyl-acetamide] is 0.008 µM.
